# Test results published in patent US7776865B2, “Substituted pyrazolo[1,5-a]pyrimidines as protein kinase inhibitors” (Schering Corporation, priority 2005, dated 2010).
# Target: T1, recombinant His-CHK1 (Homo sapiens, UniProt O14757)
# T1 construct: His-CHK1, In House Lot P976, MW ˜30 KDa, stored at −80° C; fused on or other part: His tag
# T1 sequence (O14757 1-265 limits assumed): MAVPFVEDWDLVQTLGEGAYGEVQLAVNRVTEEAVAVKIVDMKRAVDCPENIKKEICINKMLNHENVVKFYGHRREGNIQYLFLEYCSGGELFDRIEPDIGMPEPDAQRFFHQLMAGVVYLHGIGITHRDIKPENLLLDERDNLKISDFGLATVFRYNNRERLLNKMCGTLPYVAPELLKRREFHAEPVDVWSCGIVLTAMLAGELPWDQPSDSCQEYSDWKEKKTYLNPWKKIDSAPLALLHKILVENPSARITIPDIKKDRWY
# Assay: CHK1 SPA Assay
# Assay type: biochemical
# Conditions: CDC25C biotinylated peptide substrate, 1 uM ATP, read-out: CHK1 IC50
row,Structure (SMILES),IC50 [nM]
1,CCC(=O)c1c(C2CCCNC2)nc2c(-c3cnn(C)c3)cnn2c1N (centres unmarked),12
2,Nc1c(-c2ccccc2)c(N2CC[C@H](N)C2)nc2c(Br)cnn12,22600
3,Cc1nc2c(Br)cnn2c(N)c1CCC(N)=O,> 50000
4,Cc1c(N2CC[C@H](N)C2)nc2c(Br)cnn2c1N,1580
5,"CC(O)c1c(C2CCCNC2)nc2c(-c3cnn(C)c3)cnn2c1N (single isomer, unassigned) [drawing 212]",148
6,CC(=O)c1c(C2CCCNC2)nc2c(-c3cnn(C)c3)cnn2c1N (centres unmarked),8
7,"CC(O)c1c(C2CCCNC2)nc2c(-c3cnn(C)c3)cnn2c1N (single isomer, unassigned) [drawing 213]",18
8,CCc1c(N2CC[C@H](N)C2)nc2c(Br)cnn2c1N,845
9,Cc1nc2c(Br)cnn2c(N)c1CC(N)=O,4750
10,C=C(C)c1c(C2CCCNC2)nc2c(-c3cnn(C)c3)cnn2c1N (centres unmarked),67
11,CNC(=O)Cc1c(C)nc2c(Br)cnn2c1N,> 50000
12,CC(=NO)c1c(C2CCCNC2)nc2c(-c3cnn(C)c3)cnn2c1N (centres unmarked),59
13,Cc1nc2c(Br)cnn2c(N)c1CCO,29100
14,Cn1cc(-c2cnn3c(N)c(C(=O)Cc4ccccc4)c(C4CCCNC4)nc23)cn1 (centres unmarked),47
15,Cn1cc(-c2cnn3c(N)c(-c4cnn(CCO)c4)c(C4CCCNC4)nc23)cn1 (centres unmarked),114

# Same assay, conditions: CHK1 IC50 [nM], CDC25C biotinylated peptide substrate, 1 uM ATP
row,Structure (SMILES),IC50 [nM]
1,CCc1c(C2CCCNC2)nc2c(-c3cnn(C)c3)cnn2c1N (centres unmarked),31
2,Cn1cc(-c2cnn3c(N)c(-c4cccs4)c(C4CCCNC4)nc23)cn1 (centres unmarked),86
3,Cn1cc(-c2cnn3c(N)c(C4CC4)c(C4CCCNC4)nc23)cn1 (centres unmarked),17
4,COC/C=C/c1c(C2CCCNC2)nc2c(-c3cnn(C)c3)cnn2c1N (centres unmarked),52
5,Cn1cc(-c2cnn3c(N)c(-c4ccncc4)c(C4CCCNC4)nc23)cn1 (centres unmarked),229
6,Cn1cc(-c2cnn3c(N)c(C#N)c(C4CCCNC4)nc23)cn1 (centres unmarked),102
7,Cn1cc(-c2cnn3c(N)c(-c4cccnc4)c(C4CCCNC4)nc23)cn1 (centres unmarked),507
8,CC#Cc1c(C2CCCNC2)nc2c(-c3cnn(C)c3)cnn2c1N (centres unmarked),44
9,Cn1cc(-c2cnn3c(N)c(-c4ccoc4)c(C4CCCNC4)nc23)cn1 (centres unmarked),340
10,Cn1cc(-c2cnn3c(N)c(-c4ccccc4)c(C4CCCNC4)nc23)cn1 (centres unmarked),563
11,Cn1cc(-c2c(C3CCCNC3)nc3c(-c4cnn(C)c4)cnn3c2N)cn1 (centres unmarked),102
12,Cn1cc(-c2cnn3c(N)c(-c4ccsc4)c(C4CCCNC4)nc23)cn1 (centres unmarked),160

# Target: T2, CDK2/cyclin A (Homo sapiens, UniProt P24941)
# T2 construct: made in house; host or cells: SF9 cells (recombinant baculovirus, pFASTBAC)
# Assay: CDK2 Assay (in vitro kinase assay, cyclin A-dependent)
# Assay type: biochemical
# Conditions: not given
row,Structure (SMILES),IC50 [nM]
1,CCC(=O)c1c(C2CCCNC2)nc2c(-c3cnn(C)c3)cnn2c1N (centres unmarked),38
2,CC(=O)c1c(C2CCCNC2)nc2c(-c3cnn(C)c3)cnn2c1N (centres unmarked),33
3,C=C(C)c1c(C2CCCNC2)nc2c(-c3cnn(C)c3)cnn2c1N (centres unmarked),201
4,Cn1cc(-c2cnn3c(N)c(C(=O)Cc4ccccc4)c(C4CCCNC4)nc23)cn1 (centres unmarked),103
5,Cn1cc(-c2cnn3c(N)c(-c4cnn(CCO)c4)c(C4CCCNC4)nc23)cn1 (centres unmarked),11700

# Same assay, conditions: SPA, biotinylated Histone H1 peptide substrate; read-out: CDK2/cyclin A IC50
row,Structure (SMILES),IC50 [nM]
1,CCc1c(C2CCCNC2)nc2c(-c3cnn(C)c3)cnn2c1N (centres unmarked),334
2,Cn1cc(-c2cnn3c(N)c(C4CC4)c(C4CCCNC4)nc23)cn1 (centres unmarked),167
3,Cn1cc(-c2cnn3c(N)c(-c4ccncc4)c(C4CCCNC4)nc23)cn1 (centres unmarked),11300
4,Cn1cc(-c2cnn3c(N)c(C#N)c(C4CCCNC4)nc23)cn1 (centres unmarked),1720
5,Cn1cc(-c2cnn3c(N)c(-c4cccnc4)c(C4CCCNC4)nc23)cn1 (centres unmarked),1480
6,CC#Cc1c(C2CCCNC2)nc2c(-c3cnn(C)c3)cnn2c1N (centres unmarked),1290
7,Cn1cc(-c2c(C3CCCNC3)nc3c(-c4cnn(C)c4)cnn3c2N)cn1 (centres unmarked),224000
8,Cn1cc(-c2cnn3c(N)c(-c4ccsc4)c(C4CCCNC4)nc23)cn1 (centres unmarked),2150

# Same assay, conditions: read-out: CDK2/cyclin A IC50; SPA, biotinylated Histone H1 peptide substrate
row,Structure (SMILES),IC50 [nM]
1,Cc1nc2c(Br)cnn2c(N)c1CCC(N)=O,882
2,Cc1c(N2CC[C@H](N)C2)nc2c(Br)cnn2c1N,754
3,CCc1c(N2CC[C@H](N)C2)nc2c(Br)cnn2c1N,852
4,Cc1nc2c(Br)cnn2c(N)c1CC(N)=O,1190
5,CNC(=O)Cc1c(C)nc2c(Br)cnn2c1N,41300
6,Cc1nc2c(Br)cnn2c(N)c1CCO,69

# Tested on: not given
# Assay: not given
# Conditions: not given
row,Structure (SMILES),melting point [°C]
1,Nc1c(-c2ccccc2)c(N2CC[C@H](N)C2)nc2c(Br)cnn12,167 to 170
